How the values were obtained:
[1] = target: T1, human α4β2 subtype of nicotinic acetylcholine receptors (Homo sapiens, UniProt P17787+P43681); assay: Agonist activities at human α4β2 subtype of nicotinic acetylcholine receptors expressed in Xenopus oocytes (membrane potential holding method); format: cell-based; conditions: 100 μM test compound, relative to 10 μM acetylcholine (100%)
T1 construct: expressed in transfected cells; host or cells: Xenopus laevis oocytes injected with hnACh-R α4 and β2 cRNA (pSP64 polyA)
T1 sequence (P43681 29-627 limits assumed): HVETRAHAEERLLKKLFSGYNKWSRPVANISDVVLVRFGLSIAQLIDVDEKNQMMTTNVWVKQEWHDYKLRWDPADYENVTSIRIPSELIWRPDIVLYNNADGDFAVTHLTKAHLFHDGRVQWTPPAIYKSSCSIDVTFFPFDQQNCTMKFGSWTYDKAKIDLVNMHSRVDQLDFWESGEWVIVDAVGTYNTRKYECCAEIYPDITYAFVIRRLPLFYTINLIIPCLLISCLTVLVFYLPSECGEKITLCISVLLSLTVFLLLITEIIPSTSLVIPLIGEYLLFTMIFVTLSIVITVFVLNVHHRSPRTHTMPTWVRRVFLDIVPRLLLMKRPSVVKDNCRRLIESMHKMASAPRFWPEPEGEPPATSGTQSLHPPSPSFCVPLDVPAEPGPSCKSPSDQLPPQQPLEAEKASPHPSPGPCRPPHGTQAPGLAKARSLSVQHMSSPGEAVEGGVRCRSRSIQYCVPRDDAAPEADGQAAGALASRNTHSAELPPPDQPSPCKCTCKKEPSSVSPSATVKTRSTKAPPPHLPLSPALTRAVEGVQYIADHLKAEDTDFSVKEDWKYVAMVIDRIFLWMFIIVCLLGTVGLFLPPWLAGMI
T1 sequence (P17787 26-502): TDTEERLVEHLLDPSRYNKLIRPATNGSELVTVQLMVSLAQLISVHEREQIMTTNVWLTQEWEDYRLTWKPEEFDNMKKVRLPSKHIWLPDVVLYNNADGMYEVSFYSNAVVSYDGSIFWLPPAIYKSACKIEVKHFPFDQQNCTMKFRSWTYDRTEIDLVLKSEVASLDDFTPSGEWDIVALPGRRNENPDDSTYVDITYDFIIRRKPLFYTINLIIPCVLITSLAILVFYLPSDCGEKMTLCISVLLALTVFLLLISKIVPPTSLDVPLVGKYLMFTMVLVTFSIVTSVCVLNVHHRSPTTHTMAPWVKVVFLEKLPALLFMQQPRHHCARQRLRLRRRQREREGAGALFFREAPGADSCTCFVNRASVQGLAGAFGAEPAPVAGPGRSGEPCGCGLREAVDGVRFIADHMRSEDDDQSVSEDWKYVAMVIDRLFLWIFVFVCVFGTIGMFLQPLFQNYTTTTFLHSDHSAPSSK
Description: The agonist effect in human α4β2 subtype of nicotinic acetylcholine receptors are examined by using human nicotinic acetylcholine receptors prepared in oocytes of Xenopus laevis, which is injected with cRNA from the corresponding cloning cDNA of human α4 and β2 subunits of nicotinic acetylcholine receptors, and to measure the expression of the electric response by adding the test compounds to perfusion solution by means of membrane potential holding method.
Agonist Activities at Human α4β2 Subtype of Nicotinic Acetylcholine Receptors
(1) Preparation of cRNA of Human α4β2 Subtype of Nicotinic Acetylcholine Receptors
The obtained hnACh-R α4 cDNA and hnACh-R β2 cDNA were inserted to the cRNA expression vector (pSP64 polyA) having SP6 RNA promoter to construct hnACh-R α4/pSP64 polyA and hnACh-R β2/pSP64 polyA, respectively. After cutting from expression vector by restriction enzyme (EcoRI), transcription was performed by affecting SP6 RNA polymerase in the presence of cap analogues to obtain hnACh-R α4 cRNA and hnACh-R β2 cRNA, respectively.
(2) Expression of Human α4β2 Subtype Nicotinic Acetylcholine Receptors in Xenopus Oocytes
Oocytes were purchased from Kitanihonseibutsukyohzai Co., Ltd., which were already enucleated from Xenopus laevis, and used in this experiment.
The oocytes were treated with collagenase (Sigma type I; 1 mg/ml) in calcium-free modified Birth's solution (88 mM of NaCl, 1 mM of KCl, 2.4 mM of NaHCO3, 0.82 mM of MgSO4, 15 mM of HEPES, pH 7.6) under gently stirring at room temperature for 90 minutes, and washed out the enzyme from the tissue. Then, oocytes were separated from ovarian follicle by tweezers, and isolated oocytes were placed in antibiotics containing modified Birth's solution (88 mM of NaCl, 1 mM of KCl, 2.4 mM of NaHCO3, 0.82 mM of MgSO4, 15 mM of HEPES, pH 7.6, and 0.1 v/v % of mixture solution containing of penicillin and streptomycin for incubation; Sigma Co.). […] In oocytes, heterogeneous quintuple [(α4)2(β2)3] was composed by translation of injected cRNAs, and ion channel receptors were constructed on cell membrane.
(3) Agonist Activities at Human α4β2 Subtype of Nicotinic Acetylcholine Receptors
The recordings of responses at human α4β2 subtype of nicotinic acetylcholine receptors by means of membrane potential holding method were performed as follow. […] Test compounds were added to the perfusion solution, and recorded the peak strength of induced inward current. In order to normalize the responses of test compounds, the responses with acetylcholine (Ach) were recorded before and after application of the test compounds. Generally in the oocytes just after isolated, the response of intrinsic muscarinic acetylcholine receptors, which is inward current caused by activation of calcium dependence chloride ion channels with increase of the intracellular calcium concentration by stimulation of receptors, is observed. […] Therefore, the responses observed in oocytes with injection of hnACh-R α4 cRNA and hnACh-R β2 cRNA, i.e., the inward current induced by the intracellular influx of sodium ion according to the stimulation of receptors, would be the freshly observed responses of human α4β2 subtype nicotinic acetylcholine receptors.

[2] = target: α1β1γδ subtype of nicotinic acetylcholine receptors (Rattus norvegicus, UniProt P18916+P25108+P25109+P25110); assay: biochemical; format: binding
Sequence of α1β1γδ subtype of nicotinic acetylcholine receptors (P25109 24-501): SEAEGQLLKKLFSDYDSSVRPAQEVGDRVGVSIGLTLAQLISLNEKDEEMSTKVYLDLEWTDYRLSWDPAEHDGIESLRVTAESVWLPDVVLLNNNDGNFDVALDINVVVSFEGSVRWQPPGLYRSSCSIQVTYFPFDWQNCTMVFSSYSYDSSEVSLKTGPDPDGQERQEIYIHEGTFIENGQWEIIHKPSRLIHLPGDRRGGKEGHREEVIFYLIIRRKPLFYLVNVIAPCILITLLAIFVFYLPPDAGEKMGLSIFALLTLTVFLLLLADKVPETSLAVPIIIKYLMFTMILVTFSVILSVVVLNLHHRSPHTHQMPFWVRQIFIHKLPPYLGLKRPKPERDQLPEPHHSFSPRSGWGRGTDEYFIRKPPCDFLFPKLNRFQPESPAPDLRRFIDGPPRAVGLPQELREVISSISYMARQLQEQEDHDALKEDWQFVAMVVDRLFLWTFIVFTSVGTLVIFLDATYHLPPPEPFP
Sequence of α1β1γδ subtype of nicotinic acetylcholine receptors (P25110 22-517): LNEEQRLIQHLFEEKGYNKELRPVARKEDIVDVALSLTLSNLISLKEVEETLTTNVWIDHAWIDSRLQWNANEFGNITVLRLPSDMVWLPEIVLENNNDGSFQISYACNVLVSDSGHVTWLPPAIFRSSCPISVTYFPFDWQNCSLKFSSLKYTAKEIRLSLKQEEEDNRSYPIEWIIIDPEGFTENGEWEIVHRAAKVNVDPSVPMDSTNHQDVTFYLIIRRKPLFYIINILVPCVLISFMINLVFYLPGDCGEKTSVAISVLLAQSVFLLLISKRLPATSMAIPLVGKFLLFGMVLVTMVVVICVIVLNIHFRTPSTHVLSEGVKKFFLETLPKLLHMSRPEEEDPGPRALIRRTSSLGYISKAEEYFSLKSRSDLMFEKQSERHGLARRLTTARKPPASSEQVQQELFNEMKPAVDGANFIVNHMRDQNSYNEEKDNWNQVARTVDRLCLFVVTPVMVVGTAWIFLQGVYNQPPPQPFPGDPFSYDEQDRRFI
Sequence of α1β1γδ subtype of nicotinic acetylcholine receptors (P25108 21-457): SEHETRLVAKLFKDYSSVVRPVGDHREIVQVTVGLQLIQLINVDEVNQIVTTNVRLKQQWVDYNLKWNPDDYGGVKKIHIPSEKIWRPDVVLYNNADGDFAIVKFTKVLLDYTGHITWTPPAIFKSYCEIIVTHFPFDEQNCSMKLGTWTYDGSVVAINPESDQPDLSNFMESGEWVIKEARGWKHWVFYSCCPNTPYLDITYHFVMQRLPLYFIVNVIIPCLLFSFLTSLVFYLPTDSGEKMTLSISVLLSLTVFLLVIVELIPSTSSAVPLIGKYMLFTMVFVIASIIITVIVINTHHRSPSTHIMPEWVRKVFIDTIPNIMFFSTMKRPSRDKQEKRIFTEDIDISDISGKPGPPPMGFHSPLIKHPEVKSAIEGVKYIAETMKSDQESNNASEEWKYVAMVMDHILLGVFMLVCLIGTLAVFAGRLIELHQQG
Text: (§1) The methods for evaluating the binding capabilities of the compounds at nicotinic acetylcholine receptors are different by subtypes of receptors. The binding capabilities of the compounds at α4β2 nicotinic acetylcholine receptors are examined using rat brain membrane obtained from whole homogenized brain, and determining the inhibiting rate of the compounds against [^3H]-cytisine binding to said brain membrane. Furthermore, the binding capabilities of the compounds at α1β1γδ nicotinic acetylcholine receptors are examined using homogenized rat muscle, and determining the inhibiting rate of the compounds against [^3H]-α-bungarotoxin binding to said muscle homogenate.
Binding Assays at α1β1γδ Subtype of Nicotinic Acetylcholine Receptors
The affinity of the compounds of the present invention to α1β1γδ subtype of nicotinic acetylcholine receptors was measured by the following method, which was modified method described by Garcha H. S., Thomas P., Spivak C.
(1) Preparation of Rat Skeletal Muscles Containing α1β1γδ Subtype of Nicotinic Acetylcholine Receptors
The substantially same animals described in the Biological Experiment 1 were used.
The isolation of α1β1γδ subtype of nicotinic acetylcholine receptors was performed as follow. That is, rat posterior skeletal muscles were isolated just after sacrificed by decapitation, washed with ice-cooled saline solution and then frozen at −80° C. with liquid nitrogen and stored till using. After thawing the frozen muscles, tissue was homogenized ([…]) with buffer solution [2.5 mM of sodium phosphate buffer (pH:7.2), 90 mM of NaCl, 2 mM of KCl, 1 mM of EDTA, 2 mM of benzamidine, 0.1 mM of benzethonium chloride, 0.1 mM of PMSF, 0.01% of sodium azide] in Waring blender (Waring blender 34BL97; WARING PRODUCTS DIVISION DYNAMICS CORPORATION OF AMERICA) for 60 seconds. The homogenate were centrifuged under 20,000×G for 60 minutes at 4° C. The supernatant was separated and the resulting pellet was added to the same buffer (1.5 ml/g wet weight), and homogenized under the same conditions. Triton X100 (2% w/v) was added and the mixture was stirred for 3 hours at 4° C. The centrifugation at 100,000×G for 60 minutes at 4° C. yielded the rat muscle extract as supernatant. This was stored at 4° C. for up to 4 weeks, and used for binding assays at receptors.
(2) Experiments of α1β1γδ Subtype of Nicotinic Acetylcholine Receptors Binding
Receptors binding experiments were performed as follow. That is, the extract of rat muscle containing 600-900 μg of protein was added to test tubes containing test compounds and incubated for 15 minutes at 37° C. Then, to this mixture was added 1 nM of [^3H]-α-bungarotoxin (α-Bgt) and further incubated for 2 hours. The samples were isolated by vacuum filtration onto Whatman GF/B filters, which were prerinsed with 0.5% polyethylenimine just prior to sample filtration, using Brandel multi manifold cell harvester. The filters were rapidly rinsed with washing solution (10 mM of KH2PO4, 150 mM of NaCl, pH 7.2, room temperature) (5×1 ml). The filters were counted in 3 ml of clearsol I (Nacalai Tesque Inc.). The determination of nonspecific binding was incubated in the presence of 1 μM α-Bgt. […] In the receptor binding experiments, said buffer solution was added for adjusting the final concentration of BSA to be 0.05%.
The analyses of the experimental results were conducted by the same way as described in the Biological Experiment 1.

[3] = target: T2, α4β2 subtype of nicotinic acetylcholine receptors (Rattus norvegicus, UniProt P09483+P12390); assay: Binding assay at α4β2 subtype of nicotinic acetylcholine receptors ([3H]-cytisine, rat brain membrane)
T2 construct: examined using rat brain membrane obtained from whole homogenized brain; from tissue; host or cells: rat whole brain membranes (Fischer-344 male rats)
T2 sequence (P09483 31-630): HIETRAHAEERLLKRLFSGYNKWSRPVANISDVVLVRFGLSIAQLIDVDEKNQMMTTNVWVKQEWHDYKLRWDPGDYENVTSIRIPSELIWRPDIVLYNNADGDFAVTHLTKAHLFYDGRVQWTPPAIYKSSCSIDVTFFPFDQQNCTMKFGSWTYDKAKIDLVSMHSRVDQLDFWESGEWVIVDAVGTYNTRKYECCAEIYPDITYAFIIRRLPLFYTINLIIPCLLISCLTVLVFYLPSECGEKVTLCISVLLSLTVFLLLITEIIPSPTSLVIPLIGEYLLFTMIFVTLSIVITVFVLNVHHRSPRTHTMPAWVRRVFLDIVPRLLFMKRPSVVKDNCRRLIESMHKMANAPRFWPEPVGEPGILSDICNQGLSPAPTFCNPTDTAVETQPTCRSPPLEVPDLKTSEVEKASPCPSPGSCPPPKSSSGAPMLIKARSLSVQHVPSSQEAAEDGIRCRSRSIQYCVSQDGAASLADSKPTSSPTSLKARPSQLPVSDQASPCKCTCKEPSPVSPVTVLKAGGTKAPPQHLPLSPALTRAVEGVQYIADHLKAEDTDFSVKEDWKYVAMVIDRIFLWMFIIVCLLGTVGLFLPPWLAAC
T2 sequence (P12390 25-500): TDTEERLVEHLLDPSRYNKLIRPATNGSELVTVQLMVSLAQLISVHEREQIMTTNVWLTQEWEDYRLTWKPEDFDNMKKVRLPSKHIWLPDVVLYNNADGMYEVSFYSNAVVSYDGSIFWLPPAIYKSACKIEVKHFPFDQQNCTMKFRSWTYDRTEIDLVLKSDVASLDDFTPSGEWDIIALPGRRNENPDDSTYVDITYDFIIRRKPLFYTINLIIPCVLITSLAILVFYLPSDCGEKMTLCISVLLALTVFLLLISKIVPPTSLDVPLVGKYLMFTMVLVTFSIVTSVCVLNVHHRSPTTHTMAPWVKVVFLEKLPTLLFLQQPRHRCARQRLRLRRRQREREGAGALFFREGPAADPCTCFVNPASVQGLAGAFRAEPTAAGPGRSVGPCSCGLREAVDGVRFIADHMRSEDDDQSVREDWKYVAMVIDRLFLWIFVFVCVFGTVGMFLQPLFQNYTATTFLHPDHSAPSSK
Text: as §1
Binding Assays at α4β2 Subtype of Nicotinic Acetylcholine Receptors
(1) Preparation of Rat Brain Membrane Containing α4β2 Subtype of Nicotinic Acetylcholine Receptors
Rats were housed in the breeding cage controlled of the room temperature at 23±1° C., and the humidity of 55±5% for 1 to 4 weeks. Rats (3 to 4 rats per a cage) were housed with lights on for 12 hours daily (from 7:00 to 19:00), and allowed free access to food and water.
Preparation of rat brain membrane containing α4β2 subtype of nicotinic acetylcholine receptors was performed as follow. That is, rat brains were isolated just after sacrificed by decapitation, washed with ice-cooled saline solution and then frozen at −80° C. with liquid nitrogen and stored till using. After thawing the frozen brain, the brain was homogenized in 10 volumes of ice-cooled buffer solution (50 mM of Tris-HCl, 120 mM of NaCl, 5 mM of KCl, 1 mM of MgCl2, 2 mM of CaCl2; pH 7.4; 4° C.) using homogenizer (HG30, Hitachi Kohki Ltd.) for 30 seconds, and the homogenate were centrifuged under 1,000×G for 10 minutes at 4° C. The resulting supernatant was separated and the pellet was homogenized again with half volume of aforementioned prior buffer solution and centrifuged under the same conditions. Combined supernatant was further centrifuged under 40,000×G for 20 minutes at 4° C. The pellet was suspended in buffer solution and used for binding assays at receptors.
(2) Experiments of α4β2 Subtype of Nicotinic Acetylcholine Receptors Binding
Suspensions of membrane pellets containing 400-600 μg of protein were added to test tubes containing test compounds and [^3H]-cytisine (2 nM) in a final volume of 200 μl and incubated for 75 minutes in ice-cooled bath. The samples were isolated by vacuum filtration onto Whatman GF/B filters, which were prerinsed with 0.5% polyethylenimine just prior to sample filtration, using Brandel multi manifold cell harvester. The filters were rapidly washed with buffer solution (3×1 ml). The filters were counted in 3 ml of clearsol I (Nacalai Tesque Inc.).
The analyses of the experimental results were conducted by using the Accufit Competition Program (Beckman Ltd.).

| SMILES | Agonist activity: control % by response at 100 μM of the test compound [1] | Ki [2] [µM] | Ki [3] [µM] |
| --- | --- | --- | --- |
| Clc1ccc(CN2C=NCCC2)cn1 [Compound 27, 1-(6-chloro-3-pyridyl)methyl-1,4,5,6-tetrahydropyrimidine] | (18.0%) | 45 | 0.002 |
| Cc1ccc(CC2=NCCN2)cn1 [Compound 45, 2-(6-methyl-3-pyridyl)methyl-2-imidazoline] | (12.0%) |  |  |
| CN1CCN=C1Cc1cnc(Cl)c(Cl)c1 [Compound 53, 2-(5,6-dichloro-3-pyridyl)methyl-1-methyl-2-imidazoline] |  | 83 | 0.01 |
| CC1CCNC(Cc2ccc(Cl)nc2)=N1 (stereo not shown) [Compound 54, 2-(6-chloro-3-pyridyl)methyl-4-methyl-1,4,5,6-tetrahydropyrimidine] |  | 1740 | 0.108 |
| Cc1ccc(CN2C=NCCC2)cn1 [Compound 57, 1-(6-methyl-3-pyridyl)methyl-1,4,5,6-tetrahydropyrimidine] | (9.1%) | 86 | 0.012 |
| C1=NCCCN1Cc1cccnc1 [Compound 58, 1-(3-pyridyl)methyl-1,4,5,6-tetrahydropyrimidine] | (27.9%) | 32 | 0.0069 |
| CC1=NCCN1CCc1ccc(Cl)nc1 [Compound 62, 1-[2-(6-chloro-3-pyridyl)ethyl]-2-methyl-2-imidazoline] | (9.6%) | 639 | 0.07 |
| Clc1ncc(CC2=NCCCN2)s1 [Compound 64, 2-(2-chloro-5-thiazolyl)methyl-1,4,5,6-tetrahydropyrimidine] |  | 23 | 0.0081 |
| Clc1ncc(CC2=NCCN2)s1 [Compound 65, 2-(2-chloro-5-thiazolyl)methyl-2-imidazoline] |  | 524 | 0.053 |
| c1ncc(CC2=NCCCN2)cn1 [Compound 66, 2-(5-pyrimidyl)methyl-1,4,5,6-tetrahydropyrimidine] |  | 841 | 0.09 |
| Cc1cncc(CC2=NCCCN2)c1 [Compound 68, 2-(5-methyl-3-pyridyl)methyl-1,4,5,6-tetrahydropyrimidine] |  | 231 | 0.203 |

From patent US20030100769A1, “Cyclic amidine compounds” (priority 2000, published 2003)
